Results on 39 molecules are retold here after ChEMBL document CHEMBL1152890, “Synthesis and evaluation of a novel series of heterocyclic oleanolic acid derivatives with anti-osteoclast formation activity” (Eur J Med Chem, 2009).

Common to all, as to assay type: functional
Experiment [1] in a line: Antiosteoclast activity in ICR mouse osteoblast like cells co-cultured with bone marrow cells assessed as effect on 1-alpha,25(OH)2D3-induced TRAP-positive osteoclast like multinucleated cell formation at 20 uM after 6 days medium replaced every 2 days relative to control.
A short description of experiment [2]: Antiosteoclast activity in ICR mouse osteoblast like cells co-cultured with bone marrow cells assessed as effect on 1-alpha,25(OH)2D3-induced TRAP-positive osteoclast like multinucleated cell formation at 2 uM after 6 days medium replaced every 2 days relative to control.
The nature of experiment [3]: Antiosteoclast activity in ICR mouse osteoblast like cells co-cultured with bone marrow cells assessed as recovery of 1-alpha,25(OH)2D3-induced TRAP-positive osteoclast like multinucleated cell formation at 20 uM after 6 days drug removal after 2 days relative to control.

With `COC(=O)CNC(=O)[C@]12CCC(C)(C)C[C@H]1C1=CC[C@@H]3[C@@]4(C)Cc5c([nH]c6ccc(Cl)cc56)C(C)(C)[C@@H]4CC[C@@]3(C)[C@]1(C)CC2`, the Activity in experiment [1] was found to be 0%; in experiment [2], 66.6%.
For `COC(=O)[C@H](Cc1ccccc1)NC(=O)[C@]12CCC(C)(C)C[C@H]1C1=CC[C@@H]3[C@@]4(C)CCC(=O)C(C)(C)[C@@H]4CC[C@@]3(C)[C@]1(C)CC2`, the Activity came out at 82.3% in experiment [1] and 99.1% in experiment [3].
`CC1(C)CC[C@]2(C(=O)NCC(=O)O)CC[C@]3(C)C(=CC[C@@H]4[C@@]5(C)Cc6nccnc6C(C)(C)[C@@H]5CC[C@]43C)[C@@H]2C1`: the Activity in experiment [1] came out at 85.1%.
Consider `CC1(C)CC[C@]2(C(=O)N[C@@H](Cc3ccccc3)C(=O)O)CC[C@]3(C)C(=CC[C@@H]4[C@@]5(C)Cc6nc7ccccc7nc6C(C)(C)[C@@H]5CC[C@]43C)[C@@H]2C1`, for which the Activity in experiment [1] is listed as 75.4%.
Same read-out and setting: the result for `C[C@H](NC(=O)[C@]12CCC(C)(C)C[C@H]1C1=CC[C@@H]3[C@@]4(C)CCC(=O)C(C)(C)[C@@H]4CC[C@@]3(C)[C@]1(C)CC2)C(=O)O` reads 100%.
Still for that read-out and setting: the result for `CC(C)C[C@H](NC(=O)[C@]12CCC(C)(C)C[C@H]1C1=CC[C@@H]3[C@@]4(C)CCC(=O)C(C)(C)[C@@H]4CC[C@@]3(C)[C@]1(C)CC2)C(=O)O` reads 100.6%; that for `CC[C@H](C)[C@H](NC(=O)[C@]12CCC(C)(C)C[C@H]1C1=CC[C@@H]3[C@@]4(C)Cc5c([nH]c6ccccc56)C(C)(C)[C@@H]4CC[C@@]3(C)[C@]1(C)CC2)C(=O)O`, 84.4%.
For `COC(=O)[C@H](C)NC(=O)[C@]12CCC(C)(C)C[C@H]1C1=CC[C@@H]3[C@@]4(C)Cc5c([nH]c6ccc(Cl)cc56)C(C)(C)[C@@H]4CC[C@@]3(C)[C@]1(C)CC2`, the figures for the Activity in experiment [1] and in experiment [2] were 10.1% and 79.9%, respectively.
As to `C[C@H](NC(=O)[C@]12CCC(C)(C)C[C@H]1C1=CC[C@@H]3[C@@]4(C)Cc5nc6ccccc6nc5C(C)(C)[C@@H]4CC[C@@]3(C)[C@]1(C)CC2)C(=O)O`, the Activity in experiment [1] amounted to 96.5%.
Consider `COC(=O)[C@H](CC(C)C)NC(=O)[C@]12CCC(C)(C)C[C@H]1C1=CC[C@@H]3[C@@]4(C)CCC(=O)C(C)(C)[C@@H]4CC[C@@]3(C)[C@]1(C)CC2`, for which the Activity in experiment [1] turned out to be 92.9%; in experiment [3], 100.2%.
As to `CC[C@H](C)[C@H](NC(=O)[C@]12CCC(C)(C)C[C@H]1C1=CC[C@@H]3[C@@]4(C)Cc5c([nH]c6ccccc56)C(C)(C)[C@@H]4CC[C@@]3(C)[C@]1(C)CC2)C(=O)OC`, the Activity in experiment [1] is 98.4%.
The same measure, in the same setting: the result for `CC[C@H](C)[C@H](NC(=O)[C@]12CCC(C)(C)C[C@H]1C1=CC[C@@H]3[C@@]4(C)Cc5c([nH]c6ccc(Cl)cc56)C(C)(C)[C@@H]4CC[C@@]3(C)[C@]1(C)CC2)C(=O)OC` reads 82.4%.
Regarding `CC(C)[C@H](NC(=O)[C@]12CCC(C)(C)C[C@H]1C1=CC[C@@H]3[C@@]4(C)Cc5c([nH]c6ccccc56)C(C)(C)[C@@H]4CC[C@@]3(C)[C@]1(C)CC2)C(=O)O`, the Activity in experiment [1] came out at 6.1%; in experiment [2], 70.8%.
Regarding `CC1(C)CC[C@]2(C(=O)O)CC[C@]3(C)C(=CC[C@@H]4[C@@]5(C)Cc6nc7ccccc7nc6C(C)(C)[C@@H]5CC[C@]43C)[C@@H]2C1`, the Activity is 0% in experiment [1], 92.6% in experiment [3] and 72.7% in experiment [2].
On the same counts, the results for `CC1(C)CC[C@]2(C(=O)O)CC[C@]3(C)C(=CC[C@@H]4[C@@]5(C)Cc6c([nH]c7ccc(C(=O)O)cc67)C(C)(C)[C@@H]5CC[C@]43C)[C@@H]2C1` are 0%, 97.8% and 77.2%.
`CC1(C)CC[C@]2(C(=O)O)CC[C@]3(C)C(=CC[C@@H]4[C@@]5(C)Cc6nc7cc([N+](=O)[O-])ccc7nc6C(C)(C)[C@@H]5CC[C@]43C)[C@@H]2C1`: the figures for the Activity in experiment [1] and in experiment [2] were 24.1% and 88.7%, respectively.
For `CC1(C)CC[C@]2(C(=O)N[C@@H](Cc3ccccc3)C(=O)O)CC[C@]3(C)C(=CC[C@@H]4[C@@]5(C)CCC(=O)C(C)(C)[C@@H]5CC[C@]43C)[C@@H]2C1`, the Activity in experiment [1] came to 80.7%.
Regarding `C[C@H](NC(=O)[C@]12CCC(C)(C)C[C@H]1C1=CC[C@@H]3[C@@]4(C)Cc5nccnc5C(C)(C)[C@@H]4CC[C@@]3(C)[C@]1(C)CC2)C(=O)O`, the Activity in experiment [1] is 76.5%.
In the case of `COC(=O)[C@H](C)NC(=O)[C@]12CCC(C)(C)C[C@H]1C1=CC[C@@H]3[C@@]4(C)CCC(=O)C(C)(C)[C@@H]4CC[C@@]3(C)[C@]1(C)CC2`, the Activity in experiment [1] was 29.3%; in experiment [2], 68.7%.
With `CC[C@H](C)[C@H](NC(=O)[C@]12CCC(C)(C)C[C@H]1C1=CC[C@@H]3[C@@]4(C)Cc5nc6ccccc6nc5C(C)(C)[C@@H]4CC[C@@]3(C)[C@]1(C)CC2)C(=O)OC`, in experiment [1], the Activity stood at 78.5%.
In the case of `CC1(C)CC[C@]2(C(=O)O)CC[C@]3(C)C(=CC[C@@H]4[C@@]5(C)Cc6c([nH]c7ccccc67)C(C)(C)[C@@H]5CC[C@]43C)[C@@H]2C1`, the figures for the Activity in experiment [1] and in experiment [2] were 51.1% and 94.6%, respectively.
For `COC(=O)[C@@H](NC(=O)[C@]12CCC(C)(C)C[C@H]1C1=CC[C@@H]3[C@@]4(C)CCC(=O)C(C)(C)[C@@H]4CC[C@@]3(C)[C@]1(C)CC2)C(C)C`, the Activity in experiment [1] was 100.6%.
In the case of `CC[C@H](C)[C@H](NC(=O)[C@]12CCC(C)(C)C[C@H]1C1=CC[C@@H]3[C@@]4(C)CCC(=O)C(C)(C)[C@@H]4CC[C@@]3(C)[C@]1(C)CC2)C(=O)O`, the Activity in experiment [1] is listed as 100.3%.
Same read-out and setting: the value for `COC(=O)[C@H](CC(C)C)NC(=O)[C@]12CCC(C)(C)C[C@H]1C1=CC[C@@H]3[C@@]4(C)Cc5c([nH]c6ccc(Cl)cc56)C(C)(C)[C@@H]4CC[C@@]3(C)[C@]1(C)CC2` was 86%.
As to `CC[C@H](C)[C@H](NC(=O)[C@]12CCC(C)(C)C[C@H]1C1=CC[C@@H]3[C@@]4(C)CCC(=O)C(C)(C)[C@@H]4CC[C@@]3(C)[C@]1(C)CC2)C(=O)OC`, the Activity is reported as 1.4% in experiment [1] and 94% in experiment [2].
Turning to `COC(=O)[C@@H](NC(=O)[C@]12CCC(C)(C)C[C@H]1C1=CC[C@@H]3[C@@]4(C)Cc5c([nH]c6ccccc56)C(C)(C)[C@@H]4CC[C@@]3(C)[C@]1(C)CC2)C(C)C`, the Activity in experiment [1] amounted to 99%.
Same read-out and setting: the result for `CC(C)[C@H](NC(=O)[C@]12CCC(C)(C)C[C@H]1C1=CC[C@@H]3[C@@]4(C)Cc5nccnc5C(C)(C)[C@@H]4CC[C@@]3(C)[C@]1(C)CC2)C(=O)O` reads 83.5%.
Regarding `CC1(C)CC[C@]2(C(=O)NCC(=O)O)CC[C@]3(C)C(=CC[C@@H]4[C@@]5(C)Cc6c([nH]c7ccccc67)C(C)(C)[C@@H]5CC[C@]43C)[C@@H]2C1`, the values for the Activity in experiment [1] and in experiment [2] were 9% and 95.2%, respectively.
Consider `CC1(C)CC[C@]2(C(=O)N[C@@H](Cc3ccccc3)C(=O)O)CC[C@]3(C)C(=CC[C@@H]4[C@@]5(C)Cc6nccnc6C(C)(C)[C@@H]5CC[C@]43C)[C@@H]2C1`, for which, in experiment [1], the Activity is given as 89.4%.
On the same count and under the same terms, the value for `CC1(C)CC[C@]2(C(=O)N[C@@H](Cc3ccccc3)C(=O)O)CC[C@]3(C)C(=CC[C@@H]4[C@@]5(C)Cc6c([nH]c7ccccc67)C(C)(C)[C@@H]5CC[C@]43C)[C@@H]2C1` was 58%.
With `C[C@H](NC(=O)[C@]12CCC(C)(C)C[C@H]1C1=CC[C@@H]3[C@@]4(C)Cc5c([nH]c6ccccc56)C(C)(C)[C@@H]4CC[C@@]3(C)[C@]1(C)CC2)C(=O)O`, the results for the Activity in experiment [1] and in experiment [2] were 21% and 90.2%, respectively.
On the same counts, the results for `COC(=O)[C@@H](NC(=O)[C@]12CCC(C)(C)C[C@H]1C1=CC[C@@H]3[C@@]4(C)Cc5c([nH]c6ccc(Cl)cc56)C(C)(C)[C@@H]4CC[C@@]3(C)[C@]1(C)CC2)C(C)C` are 21.1% and 90.8%.
In the case of `CC(C)[C@H](NC(=O)[C@]12CCC(C)(C)C[C@H]1C1=CC[C@@H]3[C@@]4(C)CCC(=O)C(C)(C)[C@@H]4CC[C@@]3(C)[C@]1(C)CC2)C(=O)O`, the Activity in experiment [1] amounted to 99.8%.
As for `COC(=O)CNC(=O)[C@]12CCC(C)(C)C[C@H]1C1=CC[C@@H]3[C@@]4(C)Cc5nccnc5C(C)(C)[C@@H]4CC[C@@]3(C)[C@]1(C)CC2`, the Activity in experiment [1] is reported as 41.1%; in experiment [2], 93.5%.
Regarding `COC(=O)[C@H](CC(C)C)NC(=O)[C@]12CCC(C)(C)C[C@H]1C1=CC[C@@H]3[C@@]4(C)Cc5c([nH]c6ccccc56)C(C)(C)[C@@H]4CC[C@@]3(C)[C@]1(C)CC2`, the Activity in experiment [1] was found to be 96.8%.
On the same count and under the same terms, the value for `CC1(C)CC[C@]2(C(=O)NCC(=O)O)CC[C@]3(C)C(=CC[C@@H]4[C@@]5(C)Cc6nc7ccccc7nc6C(C)(C)[C@@H]5CC[C@]43C)[C@@H]2C1` was 91.9%.
As to `CC1(C)CC[C@]2(C(=O)O)CC[C@]3(C)C(=CC[C@@H]4[C@@]5(C)Cc6c([nH]c7ccc([N+](=O)[O-])cc67)C(C)(C)[C@@H]5CC[C@]43C)[C@@H]2C1`, the Activity in experiment [1] is 0%; in experiment [3] it was 38.6%; in experiment [2] it was 83%.
`CC1(C)CC[C@]2(C(=O)NCC(=O)O)CC[C@]3(C)C(=CC[C@@H]4[C@@]5(C)CCC(=O)C(C)(C)[C@@H]5CC[C@]43C)[C@@H]2C1`: the Activity in experiment [1] is recorded as 103%.
In the case of `CC1(C)CC[C@]2(C(=O)O)CC[C@]3(C)C(=CC[C@@H]4[C@@]5(C)CCC(=O)C(C)(C)[C@@H]5CC[C@]43C)[C@@H]2C1` [OLEANONIC ACID], the results for the Activity in experiment [1] and in experiment [2] were 1.4% and 79.2%, respectively.
